Source: ChEMBL document CHEMBL1142467, “A novel monoacylglycerol lipase inhibitor with analgesic and anti-inflammatory activity” (Bioorg Med Chem Lett, 2008)
Activity calls are given as the source filed them. The rule behind the calls is not given here.

Columns and labels:
[1] = molecular target: T1, Fatty-acid amide hydrolase 1 (Rattus norvegicus) (UniProt P97612); assay: Inhibition of Sprague-Dawley rat FAAH at 100 uM
T1 sequence (whole entry): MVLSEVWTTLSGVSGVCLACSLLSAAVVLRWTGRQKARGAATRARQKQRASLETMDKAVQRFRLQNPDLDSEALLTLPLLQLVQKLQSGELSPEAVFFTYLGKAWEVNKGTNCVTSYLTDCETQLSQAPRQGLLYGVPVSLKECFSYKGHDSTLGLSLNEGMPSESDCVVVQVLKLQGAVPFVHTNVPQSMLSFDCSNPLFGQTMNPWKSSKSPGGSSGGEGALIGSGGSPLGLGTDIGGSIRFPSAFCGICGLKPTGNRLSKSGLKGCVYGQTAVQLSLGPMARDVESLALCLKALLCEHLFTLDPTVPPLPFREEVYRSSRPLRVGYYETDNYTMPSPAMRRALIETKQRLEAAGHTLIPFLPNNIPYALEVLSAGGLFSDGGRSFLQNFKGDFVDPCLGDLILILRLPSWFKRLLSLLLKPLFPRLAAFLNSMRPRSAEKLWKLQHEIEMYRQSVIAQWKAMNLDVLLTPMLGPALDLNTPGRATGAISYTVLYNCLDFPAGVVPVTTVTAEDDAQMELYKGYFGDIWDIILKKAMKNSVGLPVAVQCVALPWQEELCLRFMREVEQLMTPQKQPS

[2] = molecular target: T2, Monoglyceride lipase (Rattus norvegicus) (UniProt Q8R431); assay: Inhibition of Sprague-Dawley rat MGL at 100 uM
T2 sequence (whole entry): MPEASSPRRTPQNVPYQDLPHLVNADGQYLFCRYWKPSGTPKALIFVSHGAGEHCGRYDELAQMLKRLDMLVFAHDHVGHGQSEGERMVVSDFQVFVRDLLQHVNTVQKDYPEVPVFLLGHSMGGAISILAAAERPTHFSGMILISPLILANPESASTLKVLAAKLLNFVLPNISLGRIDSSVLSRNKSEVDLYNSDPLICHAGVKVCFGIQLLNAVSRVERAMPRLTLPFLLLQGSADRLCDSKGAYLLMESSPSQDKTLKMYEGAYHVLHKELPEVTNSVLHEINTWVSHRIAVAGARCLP

Monoglyceride lipase = molecular target: T3, Monoglyceride lipase (Rattus norvegicus, UniProt Q8R431); assay: Inhibition of Sprague-Dawley rat MGL
T3 sequence (Q8R431 whole entry): T2 sequence (whole entry)

Rattus norvegicus [3] = assay: Analgesic activity in rat assessed as inhibition of acetic acid-induced writhing responses at 36 mg/kg, ip; type: functional, organism-based; parameters: dose 36 mg/kg
Rattus norvegicus [4] = assay: Antiinflammatory activity against carrageenan-induced foot paw edema in rat at 0.01 mmol/kg, ip; type: functional
Rattus norvegicus [5] = assay: Antiinflammatory activity against carrageenan-induced foot paw edema in rat; type: functional
Rattus norvegicus [6] = assay: Analgesic activity in rat assessed as inhibition of acetic acid-induced writhing responses at 3.6 mg/kg, ip; type: functional, organism-based; parameters: dose 3.6 mg/kg

| inhibition [1] [%] | inhibition [2] [%] | Ki (Monoglyceride lipase) [µM] | SMILES | Activity (Rattus norvegicus [3]) | inhibition in vivo at 10 µmol/kg (Rattus norvegicus [4]) [%] | ED50 (Rattus norvegicus [5]) [µmol/kg] | Activity (Rattus norvegicus [6]) |
| --- | --- | --- | --- | --- | --- | --- | --- |
| 33.6 | 31.5 |  | CCCCCCCCCCCCCC[C@H](N)CO |  |  |  |  |
| 25.9 | 42.2 | 39 | CCCCCCCC/C=C\CCCCCC[C@@H](N)CN | Active |  |  |  |
| 31.3 | 30 |  | CCCCCCCCCCCCCC[C@@H](N)CO |  |  |  |  |
| 24 | 0 |  | CCCCCCCC/C=C\CCCCCC[C@@H](N)C(N)=O |  |  |  |  |
|  |  |  | COc1ccc2c(c1)c(CC(=O)O)c(C)n2C(=O)c1ccc(Cl)cc1 [INDOMETHACIN] |  | 47 |  |  |
| 0 | 0 |  | NC[C@@H](N)CCCCc1ccccc1 |  |  |  |  |
| 31.2 | 30.3 | 58.7 | CCCCCCCCCCCCCCC(N)CN (stereo not given) |  |  |  |  |
| 23.8 | 27.5 |  | CCCCCCCCCCCCCCC(=O)C(=O)NCCO |  |  |  |  |
| 30.9 | 25.9 |  | CCCCCCOc1ccc(CCCC[C@H](N)CN)cc1 |  |  |  |  |

| SMILES | inhibition [1] [%] | inhibition [2] [%] | Ki (Monoglyceride lipase) [µM] | Activity (Rattus norvegicus [3]) | inhibition in vivo at 10 µmol/kg (Rattus norvegicus [4]) [%] | ED50 (Rattus norvegicus [5]) [µmol/kg] | Activity (Rattus norvegicus [6]) |
| --- | --- | --- | --- | --- | --- | --- | --- |
| CCCCCCCC/C=C\CCCCCC[C@H](N)CN | 4.9 | 49.9 | 21.8 |  |  | 10 | Active |
